In patent publication US12616201B2, “Herbicidal compositions comprising isoxaflutole” (BASF SE, priority 2024, dated 2026):

Experiments:
Amaranthus retroflexus = test: Post-emergence application in field trials, AMARE; format: in vivo; conditions: 7 DAT
Description: (§1) In the examples below, using the method of S. R. Colby (1967) “Calculating synergistic and antagonistic responses of herbicide combinations”, Weeds 15, p. 22ff., the value E, which is expected if the activity of the individual active compounds is only additive, was calculated:
(§2) [formula] • where • X=percent activity using active herbicide A at an application rate a; • Y=percent activity using active herbicide B (i.e. isoxaflutole) at an application rate b; • E=expected activity (in %) by A+B at application rates a+b.
(§3) If the value found experimentally is higher than the value E calculated according to Colby, a synergistic effect is present.
(§4) On field test sites, natural weed infestation or seeded weeds were treated post-emergence of the weeds.
(§5) In the field trials, the weeds were treated as indicated below.
(§6) In the following experiments, the herbicidal activity for the individual herbicidal compositions (solo and mixture applications) was assessed at the indicated days after treatment (DAT). The assessments for the damage on undesired weeds caused by the composition was carried out using a scale from 0 to 100%, compared to the untreated control plants. Here, 0 means no damage and 100 means complete destruction of the plants.
(§7) Herbicide A-1 and isoxaflutole (240 g/l SC, Balance Flexx®) were, together with addition of 0.25 v/v % MSO (methylated sed oil) as adjuvant, formulated in water as distribution medium (water volume 200 l/ha) and sprayed with commercial flat fan nozzles.
(§8) Herbicide A-1, isoxaflutole (240 g/l SC), saflufenacil (342 g/l) and pyroxasulfone were, together with addition of 0.25 v/v % MSO (methylated sed oil) as adjuvant, formulated in water as distribution medium (water volume 200 l/ha) and sprayed with commercial flat fan nozzles.

Echinochloa crus-galli = test: Post-emergence application in field trials, ECHCG; format: in vivo
Description: as §1, §2, §3, §4, §5, §6
(§9) Herbicide A-1 and isoxaflutole (240 g/l SC) were, together with addition of 0.25 v/v % MSO (methylated sed oil) as adjuvant, formulated in water as distribution medium (water volume 200 l/ha) and sprayed with commercial flat fan nozzles.
as §7
(§10) Herbicide A-1, isoxaflutole (240 g/l SC) and saflufenacil (342 g/l) were, together with addition of 0.25 v/v % MSO (methylated sed oil) as adjuvant, formulated in water as distribution medium (water volume 200 l/ha) and sprayed with commercial flat fan nozzles.
as §8

HORVW = test: Post-emergence application in field trials, HORVW; format: in vivo, Hordeum vulgare
Description: as §1, §2, §3, §4, §5, §6, §8

Lolium multiflorum = test: Post-emergence application in field trials, LOLMU; format: in vivo
Description: as §1, §2, §3, §4, §5, §6, §8

Chenopodium album = test: Post-emergence application in field trials, CHEAL; format: in vivo; conditions: Table 5.22; 7 DAT; height 10-25 cm; C-19 70 g ai/ha
Description: as §1, §2, §3, §4, §5
as §6, with “the plants. […]” for “the plants.”

Zea mays = test: Post-emergence application in field trials, ZEAMX; format: in vivo
Description: as §1, §2, §3, §4, §5, §6, §9, §7, §10, §8

[1] = Table 5.23, 21 DAT, height 20-25 cm, C-19 70 g ai/ha

`Cn1nc(C(F)(F)F)c(CS(=O)(=O)C2=NOC(C)(C)C2)c1OC(F)F` [C-19, pyroxasulfone] was tested, and the “% herbicidal activity” value (Amaranthus retroflexus; Table 5.22, height 8-20 cm, C-19 70 g ai/ha) was 10%, the “% herbicidal activity” value (Amaranthus retroflexus; Table 5.4, AMARE height 8-20 cm, 70 g ai/ha) was 10% and the “% herbicidal activity” value (Echinochloa crus-galli; Table 5.23, 21 DAT, height 15-20 cm, C-19 70 g ai/ha) was 40%. The “% herbicidal activity” value (Echinochloa crus-galli; Table 5.24, 28 DAT, height 15-20 cm, C-19 70 g ai/ha) was 30%, the “% herbicidal activity” value (Echinochloa crus-galli; Table 5.4, ECHCG height 15-20 cm, 7 DAT, 70 g ai/ha) was 20% and the “% herbicidal activity” value (HORVW; Table 5.2, HORVW height 20-25 cm, 21 DAT, 70 g ai/ha) was 0%. The “% herbicidal activity” value (HORVW; [1]) was 0%, the “% herbicidal activity” value (HORVW; Table 5.24, 28 DAT, height 20-25 cm, C-19 70 g ai/ha) was 0% and the “% herbicidal activity” value (HORVW; Table 5.3, HORVW height 20-25 cm, 28 DAT, 70 g ai/ha) was 0%. For the same compound, the “% herbicidal activity” value (HORVW; Table 5.5, HORVW height 20-25 cm, 21 DAT, 70 g ai/ha) was 0%, the “% herbicidal activity” value (HORVW; Table 5.6, HORVW height 20-25 cm, 28 DAT, 70 g ai/ha) was 0% and the “% herbicidal activity” value (Lolium multiflorum; Table 5.1, LOLMU height 20-25 cm, 7 DAT, 70 g ai/ha) was 20%. For the same compound, the “% herbicidal activity” value (Lolium multiflorum; Table 5.22, 7 DAT, height 20-25 cm, C-19 70 g ai/ha) was 20%, the “% herbicidal activity” value (Lolium multiflorum; [1]) was 40% and the “% herbicidal activity” value (Lolium multiflorum; Table 5.4, LOLMU height 20-25 cm, 7 DAT, 70 g ai/ha) was 20%. The “% herbicidal activity” value (Chenopodium album) was 10%, the “% herbicidal activity” value (Zea mays; Table 5.10, 7 DAT, height 25-30 cm, C-19 70 g ai/ha) was 5% and the “% herbicidal activity” value (Zea mays; Table 5.22, 7 DAT, height 25-30 cm, C-19 70 g ai/ha) was 5%. For the same compound, the “% herbicidal activity” value (Zea mays; Table 5.23, 21 DAT, height 25-30 cm, C-19 70 g ai/ha) was 4%, the “% herbicidal activity” value (Zea mays; Table 5.24, 28 DAT, height 25-30 cm, C-19 70 g ai/ha) was 0% and the “% herbicidal activity” value (Zea mays; Table 5.4, ZEAMX height 25-30 cm, 7 DAT, 70 g ai/ha) was 5%. The “% herbicidal activity” value (Zea mays; Table 5.5, ZEAMX height 25-30 cm, 21 DAT, 70 g ai/ha) was 4% and the “% herbicidal activity” value (Zea mays; Table 5.6, ZEAMX height 25-30 cm, 28 DAT, 70 g ai/ha) was 0%.
